Where two headings read alike, the source gives them in different places. Bounds are passed on as bounds.

Experiment [1] addresses T1, baculovirus-expressed ALK (Homo sapiens, UniProt Q9UM73).
T1 construct: host or cells: baculovirus expression system
The experiment in a line: ALK Kinase Assay (ELISA-type, time-resolved fluorescence). The experiment is classed as biochemical. The procedure, abridged:
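Wells were coated with phospholipase C-γ at 10 μg/mL in Tris-buffered saline. Adding 30 ng/ml enzyme started the reaction, which ran at 37° C for 15 minutes before Eu-N1 PT66 antibody detection. Percent inhibition versus log10 concentration gave IC50 by variable-slope fit.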
A general note: In an ELISA, binding on a coated surface is turned into a signal by an enzyme label.

Experiment [2] concerns the target T2, c-Met (cytoplasmic domain) (Homo sapiens, UniProt P08581).
T2 construct: 10 ng/mL c-Met (cytoplasmic domain, Invitrogen Corporation #PV3143); purchased Invitrogen Corporation PV3143
The experiment in a line: c-Met Kinase Assay (same methods as for ALK, with modifications). The experiment is classed as biochemical. The method, boiled down: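 IC50 values were fitted by variable-slope sigmoidal regression of percent inhibition against log compound concentration. Phosphorylation was read with Eu-N1 PT66 antibody after a 15 min, 37 °C reaction. The reaction was initiated with 10 ng/mL c-Met cytoplasmic domain on wells coated with 10 μg/mL PLC-γ in TBS.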

Where [3] appears, read: ALK kinase inhibition, 1 μM ATP (Km level), read-out: ALK Activity.
[4] abbreviates: c-Met kinase inhibition, 1 μM ATP (Km level), read-out: cMet Activity.
The mark [5] stands for this setting: 1 μM ATP (Km level), read-out: ALK Activity (ALK Kinase Inhibition, IC50).
Where [6] appears, read: 1 μM ATP (Km level), read-out: cMet Activity (c-Met Kinase Inhibition, IC50).
Where [7] appears, read: 1 μM ATP (Km level), 30 ng/ml ALK, 37° C., 15 minutes, read-out: ALK Activity (ALK kinase inhibition, IC50 class).
The mark [8] stands for this setting: 1 μM ATP (Km level), 10 ng/mL c-Met, read-out: cMet Activity (c-Met kinase inhibition, IC50 class).
[9] abbreviates: ALK kinase inhibition, 1 μM ATP, read-out: ALK Activity.
[10] abbreviates: c-Met kinase inhibition, 1 μM ATP, read-out: cMet Activity.

T2 sequence (P08581 956-1390 limits assumed): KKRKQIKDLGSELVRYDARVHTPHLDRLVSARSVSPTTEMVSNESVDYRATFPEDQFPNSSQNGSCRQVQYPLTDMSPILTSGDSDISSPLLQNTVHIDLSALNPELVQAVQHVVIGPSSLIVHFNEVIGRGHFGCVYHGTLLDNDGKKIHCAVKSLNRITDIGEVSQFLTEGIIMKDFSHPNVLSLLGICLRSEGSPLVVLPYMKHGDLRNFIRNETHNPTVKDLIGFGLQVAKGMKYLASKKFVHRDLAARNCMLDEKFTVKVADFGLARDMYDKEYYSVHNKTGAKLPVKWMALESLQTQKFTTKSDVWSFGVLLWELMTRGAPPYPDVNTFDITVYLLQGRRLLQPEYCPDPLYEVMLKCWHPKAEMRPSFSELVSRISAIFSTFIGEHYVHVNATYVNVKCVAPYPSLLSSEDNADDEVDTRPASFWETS
T1 sequence (Q9UM73 19-1620): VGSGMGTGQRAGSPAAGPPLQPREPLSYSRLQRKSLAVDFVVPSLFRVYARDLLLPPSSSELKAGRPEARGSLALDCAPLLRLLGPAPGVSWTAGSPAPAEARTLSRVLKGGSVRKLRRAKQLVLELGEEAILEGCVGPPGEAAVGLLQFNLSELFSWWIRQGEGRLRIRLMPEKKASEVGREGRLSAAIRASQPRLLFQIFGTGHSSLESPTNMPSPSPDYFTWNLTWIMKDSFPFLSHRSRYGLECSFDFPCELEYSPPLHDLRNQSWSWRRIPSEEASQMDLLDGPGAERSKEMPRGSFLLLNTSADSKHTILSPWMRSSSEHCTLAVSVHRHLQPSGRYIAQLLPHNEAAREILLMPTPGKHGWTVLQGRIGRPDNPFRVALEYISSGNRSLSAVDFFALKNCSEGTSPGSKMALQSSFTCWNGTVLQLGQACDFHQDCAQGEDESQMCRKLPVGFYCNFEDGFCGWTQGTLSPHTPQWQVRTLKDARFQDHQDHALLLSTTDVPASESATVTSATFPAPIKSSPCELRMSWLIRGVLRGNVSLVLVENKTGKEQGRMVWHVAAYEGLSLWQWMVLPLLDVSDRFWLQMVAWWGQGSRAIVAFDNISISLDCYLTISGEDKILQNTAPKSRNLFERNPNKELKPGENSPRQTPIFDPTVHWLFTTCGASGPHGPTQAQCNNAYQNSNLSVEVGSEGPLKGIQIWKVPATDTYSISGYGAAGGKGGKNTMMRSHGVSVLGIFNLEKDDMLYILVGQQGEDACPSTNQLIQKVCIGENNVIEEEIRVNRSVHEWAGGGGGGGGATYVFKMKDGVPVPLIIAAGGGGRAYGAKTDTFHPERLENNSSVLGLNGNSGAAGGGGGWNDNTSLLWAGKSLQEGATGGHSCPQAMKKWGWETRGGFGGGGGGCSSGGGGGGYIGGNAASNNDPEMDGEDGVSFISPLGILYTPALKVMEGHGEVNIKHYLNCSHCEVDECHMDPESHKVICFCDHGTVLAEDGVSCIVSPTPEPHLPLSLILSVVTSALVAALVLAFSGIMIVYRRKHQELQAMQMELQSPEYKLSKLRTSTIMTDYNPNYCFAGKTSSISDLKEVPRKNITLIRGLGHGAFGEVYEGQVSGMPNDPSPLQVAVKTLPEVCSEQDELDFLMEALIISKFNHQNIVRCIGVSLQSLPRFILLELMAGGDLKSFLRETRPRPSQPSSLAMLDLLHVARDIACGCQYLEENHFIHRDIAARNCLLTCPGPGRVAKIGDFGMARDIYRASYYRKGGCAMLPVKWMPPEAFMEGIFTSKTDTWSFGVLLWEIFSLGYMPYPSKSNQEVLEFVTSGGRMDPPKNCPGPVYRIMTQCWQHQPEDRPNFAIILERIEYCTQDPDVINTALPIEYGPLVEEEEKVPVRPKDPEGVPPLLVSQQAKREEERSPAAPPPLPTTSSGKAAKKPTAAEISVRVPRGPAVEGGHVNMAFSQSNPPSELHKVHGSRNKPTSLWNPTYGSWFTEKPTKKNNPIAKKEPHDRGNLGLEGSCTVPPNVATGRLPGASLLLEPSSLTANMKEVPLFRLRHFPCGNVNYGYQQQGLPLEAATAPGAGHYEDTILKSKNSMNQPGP

For the molecule `COc1cc2c(cc1Nc1ncc(Cl)c(N[C@@H]3CCCC[C@H]3NS(C)(=O)=O)n1)CCN(C[C@H](O)C(F)(F)F)CC2` [Example 461, N-((1R,2R)-2-{5-Chloro-2-[8-methoxy-3-((S)-3,3,3-trifluoro-2-hydroxy-propyl)-2,3,4,5-tetrahydro-1H-benzo[d]azepin-7-ylamino]-pyrimidin-4-ylamino}-cyclohexyl)-methanesulfonamide], the IC50 in experiment [1] (setting [3]) is below 100 nM; in experiment [2] (setting [4]), above 10000 nM.

Take `COCCNC1CCc2cc(Nc3ncc(Cl)c(N[C@@H]4CCCC[C@H]4NS(C)(=O)=O)n3)c(OC)cc2CC1` (stereo partly drawn) [Example 896, N-((1R,2R)-2-{5-Chloro-2-[3-methoxy-7-(2-methoxy-ethylamino)-6,7,8,9-tetrahydro-5H-benzocyclohepten-2-ylamino]-pyrimidin-4-ylamino}-cyclohexyl)-methanesulfonamide]: the IC50 in experiment [1] (setting [5]) was below 100 nM; in experiment [2] (setting [6]) it was above 10000 nM.

On to `CNC(=O)c1ccccc1Nc1nc(Nc2cc3c(cc2OC)CCN(CCOC)CC3)ncc1Cl` [Example 241, 2-{5-Chloro-2-[8-methoxy-3-(2-methoxy-ethyl)-2,3,4,5-tetrahydro-1H-benzo[d]azepin-7-ylamino]-pyrimidin-4-ylamino}-N-methyl-benzamide], for which the IC50 is below 100 nM in experiment [1] (setting [3]) and 100 to 1000 nM in experiment [2] (setting [4]).

For the molecule `COc1cc2c(cc1Nc1ncc(Cl)c(Nc3ccccc3S(=O)(=O)N(C)C)n1)CCC(NCC(F)F)CC2` (stereo not drawn) [Example 1055, 2-{5-Chloro-2-[7-(2,2-difluoro-ethylamino)-3-methoxy-6,7,8,9-tetrahydro-5H-benzocyclohepten-2-ylamino]-pyrimidin-4-ylamino}-N,N-dimethyl-benzenesulfonamide], the IC50 was below 100 nM in experiment [1] (setting [7]) and above 10000 nM in experiment [2] (setting [8]).

Consider `COc1cc2c(cc1Nc1ncc(Cl)c(NC3C4C=CC(C4)C3C(N)=O)n1)NC(=O)CN(Cc1ccccc1)C2` (stereo not drawn) [Example 1652, 3-[2-(4-Benzyl-7-methoxy-2-oxo-2,3,4,5-tetrahydro-1H-benzo[e][1,4]diaz-epin-8-ylamino)-5-chloro-pyrimidin-4-ylamino]-bicyclo[2.2.1]hept-5-ene-2-carboxylic acid amide], for which the IC50 in experiment [1] (setting [9]) is below 100 nM; in experiment [2] (setting [10]), above 10000 nM.

`COCCN1CCc2ccc(Nc3ncc(Cl)c(Nc4ccccc4C(=O)OC)n3)cc2CC1` [Example 1408, 2-{5-Chloro-2-[3-(2-methoxy-ethyl)-2,3,4,5-tetrahydro-1H-benzo[d]azepin-7-ylamino]-pyrimidin-4-ylamino}-benzoic acid methyl ester]: the IC50 was below 100 nM in experiment [1] (setting [7]) and 100 to 1000 nM in experiment [2] (setting [8]).

Turning to `CCOC(=O)N1CC(=O)Nc2cc(Nc3ncc(Cl)c(Nc4c(F)cccc4C(=O)NC)n3)ccc2C1` [Example 1869, 8-[5-Chloro-4-(2-fluoro-6-methylcarbamoyl-phenylamino)-pyrimidin-2-ylamino]-2-oxo-1,2,3,5-tetrahydro-benzo[e][1,4]diazepine-4-carboxylic acid ethyl ester], the IC50 in experiment [1] (setting [9]) was in the range of 1000 to 10000 nM; in experiment [2] (setting [10]), 100 to 1000 nM.

Turning to `CNC(=O)c1cnn(C)c1Nc1nc(Nc2ccc3c(c2)CC(=O)N(C)CC3)ncc1Cl` [Example 1821, 5-[5-Chloro-2-(3-methyl-4-oxo-2,3,4,5-tetrahydro-1H-benzo[d]azepin-7-ylamino)-pyrimidin-4-ylamino]-1-methyl-1H-pyrazole-4-carboxylic acid methylamide], the IC50 in experiment [1] (setting [9]) and in experiment [2] (setting [10]) was 100 to 1000 nM throughout.

As to `COc1cc2c(cc1Nc1ncc(Cl)c(Nc3cc(C(N)=O)ccc3OC)n1)CCN(C(=O)CN(C)C)CC2` [Example 1139, 3-{5-Chloro-2-[3-(2-dimethylamino-acetyl)-8-methoxy-2,3,4,5-tetrahydro-1H-benzo[d]azepin-7-ylamino]-pyrimidin-4-ylamino}-4-methoxy-benzamide], the results for the IC50 in experiment [1] (setting [7]) and in experiment [2] (setting [8]) were 1000 to 10000 nM and above 10000 nM, respectively.

With `CN1C(=O)CCCc2cc(Nc3ncc(Cl)c(Nc4cccc5c4ncn5C)n3)ccc21` [Example 1007, 7-[5-Chloro-4-(1-methyl-1H-benzoimidazol-4-ylamino)-pyrimidin-2-ylamino]-1-methyl-1,3,4,5-tetrahydro-benzo[b]azepin-2-one], the IC50 in experiment [1] (setting [5]) and in experiment [2] (setting [6]) was 100 to 1000 nM throughout.

With `CN1CCNCc2cc(Nc3ncc(Cl)c(N[C@@H]4CCCC[C@H]4NS(C)(=O)=O)n3)ccc21` [Example 422, N-{(1R,2R)-2-[5-Chloro-2-(1-methyl-2,3,4,5-tetrahydro-1H-benzo[e][1,4]diazepin-7-ylamino)-pyrimidin-4-ylamino]-cyclohexyl}-methanesulfonamide], the IC50 in experiment [1] (setting [3]) was below 100 nM; in experiment [2] (setting [4]), 1000 to 10000 nM.

For the molecule `CN(C)[C@@H]1CCN(S(=O)(=O)c2ccccc2Nc2nc(Nc3ccc4c(c3)NC(=O)CCC4(C)C)ncc2Cl)C1` [Example 1625, 8-{5-Chloro-4-[2-((R)-3-dimethylamino-pyrrolidine-1-sulfonyl)-phenylamino]-pyrimidin-2-ylamino}-5,5-dimethyl-1,3,4,5-tetrahydro-benzo[b]azepin-2-one], the IC50 in experiment [1] (setting [9]) is below 100 nM; in experiment [2] (setting [10]) it was 1000 to 10000 nM.

For `COCCN1CCc2ccc(Nc3ncc(Cl)c(Nc4ccccc4S(=O)(=O)N(C)C)n3)cc2CC1` [Example 1686, 2-{5-Chloro-2-[3-(2-methoxy-ethyl)-2,3,4,5-tetrahydro-1H-benzo[d]azepin-7-ylamino]-pyrimidin-4-ylamino}-N,N-dimethyl-benzenesulfonamide], the results for the IC50 in experiment [1] (setting [9]) and in experiment [2] (setting [10]) were below 100 nM and 100 to 1000 nM, respectively.

`CNC(=O)c1cccc(F)c1Nc1nc(Nc2ccc3c(c2)CCN(C[C@@H](OC)C(F)(F)F)CC3)ncc1Cl` [Example 1361, 2-{5-Chloro-2-[3-((R)-3,3,3-trifluoro-2-methoxy-propyl)-2,3,4,5-tetrahydro-1H-benzo[d]azepin-7-ylamino]-pyrimidin-4-ylamino}-3-fluoro-N-methyl-benzamide]: the IC50 in experiment [1] (setting [7]) and in experiment [2] (setting [8]) was below 100 nM each time.

As to “5-Chloro-N*2*-[1-methoxy-7-(2,2,2-trifluoro-ethylamino)-6,7,8,9-tetrahydro-5H-benzocyclohepten-2-yl]-N*4*-methyl-N*4*-[2-(propane-2-sulfonyl)-phenyl]-pyrimidine-2,4-diamine [Example 680]”, the IC50 in experiment [1] (setting [5]) was below 100 nM; in experiment [2] (setting [6]), above 10000 nM.

`COCCN(C)S(=O)(=O)c1ccccc1Nc1nc(Nc2cc3c(cc2OC)CCN(CC(=O)N(C)C)CC3)ncc1Cl` [Example 1184, 2-[7-(5-Chloro-4-{2-[(2-methoxy-ethyl)-methyl-sulfamoyl]-phenylamino}-pyrimidin-2-ylamino)-8-methoxy-1,2,4,5-tetrahydro-benzo[d]azepin-3-yl]-N,N-dimethyl-acetamide]: the IC50 is below 100 nM in experiment [1] (setting [7]) and above 10000 nM in experiment [2] (setting [8]).

For “1-[5-Chloro-2-(3-dimethylcarbamoylmethyl-8-methoxy-2,3,4,5-tetrahydro-1H-benzo[d]azepin-7-ylamino)-pyrimidin-4-ylamino]-cyclopentanecarboxylic acid methylamide [Example 1203]”, the IC50 in experiment [1] (setting [7]) was 100 to 1000 nM; in experiment [2] (setting [8]) it was above 10000 nM.

With `CC1(C)CCC(=O)Nc2ccc(Nc3ncc(Cl)c(Nc4cccc(-c5cccnc5)c4)n3)cc21` [Example 993, 7-[5-Chloro-4-(3-pyridin-3-yl-phenylamino)-pyrimidin-2-ylamino]-5,5-dimethyl-1,3,4,5-tetrahydro-benzo[b]azepin-2-one], the IC50 in experiment [1] (setting [5]) lay in the range of 100 to 1000 nM; in experiment [2] (setting [6]), 1000 to 10000 nM.
